Measurements published in article PMC3661498 (Ophthalmology and Eye Diseases, 2010).
Where two headings read alike, the source gives them in different places.

Legend:
HSV-1 [1] = test: In vitro antiviral testing, CPE inhibition, HSV-1; assay type: cell-based; conditions: Human alphaherpesvirus 1, read-out: EC50 HSV-1 CPE inhibition
[2] = Transport of drug/prodrugs across freshly excised rabbit cornea; assay type: in vitro ADME; conditions: New Zealand albino, rabbit, pH 7.4
HSV-2 = test: In vitro antiviral testing, CPE inhibition, HSV-2; assay type: cell-based; conditions: Human alphaherpesvirus 2, read-out: EC50 HSV-2 CPE inhibition
HSV-1 [3] = conditions: read-out: EC50 HSV-1; cited from earlier work
[4] = tested on: [^3H] alanine uptake by rPCEC; test: Uptake of [3H] alanine by rPCEC in presence of prodrugs, kinetics and affinity; assay type: cell-based, rabbit
[5] = tested on: [^3H] arginine uptake by rPCEC; test: Uptake of [3H] arginine by rPCEC in presence of prodrugs; assay type: cell-based, rabbit; conditions: 5 mM test substance
[6] = tested on: [^3H] phenylalanine uptake by rPCEC; test: Uptake of [3H] phenylalanine by rPCEC in presence of prodrugs; assay type: cell-based, rabbit; conditions: 5 mM test substance
isolated rabbit cornea = test: Transport of drug/prodrugs across freshly excised rabbit cornea; assay type: in vitro ADME; conditions: in presence of 5 mM glutamic acid

`Nc1nc2c(ncn2COCCO)c(=O)[nH]1` [ACV, acyclovir] showed an EC50 (HSV-1 [1]) of 7.1 µM, a Papp at 3 h, 1 mM [2] of 2.33 ± 0.73 ×10⁻⁶ cm/s and an EC50 (HSV-2) of 6.6 µM.

In the case of `CC(C)[C@H](N)C(=O)OCCOCn1cnc2c(=O)[nH]c(N)nc21` [VACV, valacyclovir], the EC50 (HSV-1 [3]) is given as 9.1 µM.

With `C[C@H](N)C(=O)O` [alanine, L-alanine] the “Effect on [^3H] alanine uptake (in words)” value ([4]; 5 mM test substance) was “significantly inhibited”, the “Vmax of alanine uptake” value ([4]; no inhibitor, listed as [^3H] alanine) was 0.84 μmoles·min^−1·mg protein^−1 and the Km ([4]; read-out: Km of alanine uptake, no inhibitor) was 710 µM.

For `N=C(N)NCCC[C@H](N)C(=O)O` [arginine, L-arginine], the “Effect on [^3H] arginine uptake (in words)” value [5] was “significantly inhibited”.

For `N[C@@H](Cc1ccccc1)C(=O)O` [phenylalanine], the “Effect on [^3H] phenylalanine uptake (in words)” value [6] was “significantly inhibited”.

With `O=C(O)CCC(=O)O` [succinate] the “Effect on transcorneal flux (in words)” value (isolated rabbit cornea) was “did not cause any significant change”.
